Series [1] in a line: Dissociation constant, pKa of compound by photometric titration assay. The series is classed as physicochemical.
Series [2] can be described thus: Distribution coefficient between octanol and buffer, log D of the compound in pH 7.4 buffer by CAMDIS assay. The series is classed as physicochemical.
In series [3] the test system is Escherichia coli. Kind of series: microbe, parasite or virus in culture. The settings on record: ATCC 29213.
Description: Antibacterial activity against Escherichia coli ATCC 29213 assessed as reduction in microbial growth preincubated for 20 to 24 hrs followed by subculture in absence of compound and measured on day 4 CLSI based broth microdilution susceptibility method
Series [4] has as its system Escherichia coli. Kind of series: microbe, parasite or virus in culture. As to conditions: ATCC 25922.
Description: Antibacterial activity against Escherichia coli ATCC 25922 assessed as reduction in microbial growth preincubated for 20 to 24 hrs followed by subculture in absence of compound and measured on day 4 CLSI based broth microdilution susceptibility method
A short description of series [5]: physchem.
Description: Ionization constant (acid), pKa of the compound by photometric titration assay
A short description of series [6]: Intrinsic clearance in mouse hepatocytes by LC/MS-MS analysis. The series is classed as ADME, cell-based, Hepatocyte.
Series [7] in a line: Protein binding in plasma (unknown origin) assessed as unbound fraction at 1 uM after 5 hrs by LC/MS-MS analysis. The format is ADME, cell-free.
A short description of the next series: in vitro. The settings on record: mouse, liver microsomes. Background: Liver microsomes are a subcellular fraction often used to study metabolism.
Series [8] can be described thus: physchem. The settings on record: PBS, pH 6.5.
Description: Solubility of compound in PBS at pH 6.5 incubated for over night by HPLC-UV based lyophilization solubility assay
Series [9] deals with Escherichia coli. Kind of series: Antibacterial activity against Escherichia coli ATCC 35218 assessed as reduction in microbial growth preincubated for 20 to 24 hrs followed by subculture in absence of compound and measured on day 4 CLSI based broth microdilution susceptibility method. The series is classed as functional. The settings on record: time hrs 20-24. Background: Dilution methods test growth across graded concentrations, often in twofold steps.

The subject of series [10] is Escherichia coli. Kind of series: Antibacterial activity against Escherichia coli ATCC BAA-2340 assessed as reduction in microbial growth preincubated for 20 to 24 hrs followed by subculture in absence of compound and measured on day 4 CLSI based broth microdilution susceptibility method. The series is classed as functional. The settings on record: time hrs 20-24.
For series [11], the system named is Klebsiella pneumoniae. Kind of series: Antibacterial activity against Klebsiella pneumoniae ATCC 10031 assessed as reduction in microbial growth preincubated for 20 to 24 hrs followed by subculture in absence of compound and measured on day 4 CLSI based broth microdilution susceptibility method. The series is classed as functional. As to conditions: time hrs 20-24.

Series [12] deals with Klebsiella pneumoniae. The series is described as follows: Antibacterial activity against Klebsiella pneumoniae ATCC 700603 assessed as reduction in microbial growth preincubated for 20 to 24 hrs followed by subculture in absence of compound and measured on day 4 CLSI based broth microdilution susceptibility method. The series is classed as functional. The settings on record: time hrs 20-24.

Series [13] relates to Klebsiella pneumoniae. The series is described as follows: Antibacterial activity against Klebsiella pneumoniae ATCC BAA-2146 assessed as reduction in microbial growth preincubated for 20 to 24 hrs followed by subculture in absence of compound and measured on day 4 CLSI based broth microdilution susceptibility method. The series is classed as functional. As to conditions: time hrs 20-24.

Series [14] concerns Acinetobacter baumannii. The series is described as follows: Antibacterial activity against Acinetobacter baumannii ATCC 19606 assessed as reduction in microbial growth preincubated for 20 to 24 hrs followed by subculture in absence of compound and measured on day 4 CLSI based broth microdilution susceptibility method. The format is functional. The settings on record: time hrs 20-24.

Series [15] has as its system Acinetobacter baumannii. The series is described as follows: Antibacterial activity against Acinetobacter baumannii ATCC 51432 assessed as reduction in microbial growth preincubated for 20 to 24 hrs followed by subculture in absence of compound and measured on day 4 CLSI based broth microdilution susceptibility method. The series is classed as functional. The settings on record: time hrs 20-24.

The test system of series [16] is Acinetobacter baumannii. Kind of series: Antibacterial activity against Acinetobacter baumannii ATCC BAA-747 assessed as reduction in microbial growth preincubated for 20 to 24 hrs followed by subculture in absence of compound and measured on day 4 CLSI based broth microdilution susceptibility method. The settings on record: time hrs 20-24. The series is classed as functional.

Series [17] concerns Pseudomonas aeruginosa. Kind of series: Antibacterial activity against Pseudomonas aeruginosa PAO1 assessed as reduction in microbial growth preincubated for 20 to 24 hrs followed by subculture in absence of compound and measured on day 4 CLSI based broth microdilution susceptibility method. The format is functional. The settings on record: time hrs 20-24.
Series [18] has as its system Pseudomonas aeruginosa. The series is described as follows: Antibacterial activity against Pseudomonas aeruginosa ATCC 27853 assessed as reduction in microbial growth preincubated for 20 to 24 hrs followed by subculture in absence of compound and measured on day 4 CLSI based broth microdilution susceptibility method. The format is functional. As to conditions: time hrs 20-24.

Series [19] deals with Pseudomonas aeruginosa. Kind of series: Antibacterial activity against Pseudomonas aeruginosa ATCC BAA-2113 assessed as reduction in microbial growth preincubated for 20 to 24 hrs followed by subculture in absence of compound and measured on day 4 CLSI based broth microdilution susceptibility method. The series is classed as functional. The settings on record: time hrs 20-24.

Each structure is given as a SMILES string. ≈ marks a conversion by molar mass, not a printed value. A value given as a limit tells only on which side of the number the result lay.

Description for in vitro: Intrinsic clearance in mouse liver microsomes preincubated for 10 mins followed by NADPH regenerating system addition and measured up to 30 mins by LC/MS-MS analysis

`CCNc1cc(F)cc2c1[nH]c1ncc(-c3cncc(CC(=O)O)c3)c(-n3ccc(C(F)(F)F)n3)c12` registered a pKa in [1] of 3.51. The same molecule showed a logD in series [2] of 2.02. Moreover, the MIC with Escherichia coli [3] was 0.25 µg/mL (≈ 0.502 µM); with Escherichia coli [4], over 8 µg/mL.

In turn, `CCNc1cc(F)cc2c1[nH]c1ncc(-c3cncc(CN)c3)c(-n3ccc(C(F)(F)F)n3)c12` showed a logD in series [2] of 2.94. In the series “physchem [5]”, this molecule showed a pKa of 8.62. The MIC was under 0.25 µg/mL in the series on Escherichia coli [3] and 1 µg/mL (≈ 2.13 µM) with Escherichia coli [4].

The molecule `CCNc1cc(F)cc2c1[nH]c1ncc(-c3cncc(C#N)c3)c(-n3ncc4c3CNC4)c12` registered a CLH in series [6] of 74.6 µg/mL. Moreover, the fraction unbound at 5 h, 1 µM in series [7] worked out at 0.044. For the same molecule, the pKa in “physchem [5]” came to 7.62. In addition, the CLint scaled at 0.5 h in “in vitro” was found to be 70.3 mL/min/kg. In the series “physchem [8]”, this molecule showed a solubility of 34 µg/mL (≈ 77.5 µM). In the series with Escherichia coli [4], this molecule returned an MIC of 2 µg/mL (≈ 4.56 µM).

On to `CCNc1cc(F)cc2c1[nH]c1ncc(-c3cncc(C(N)=O)c3)c(-n3ccc(C(F)(F)F)n3)c12`, for which the logD in series [2] turned out to be 3.25. Moreover, the MIC in the series on Escherichia coli [9] stood at 0.76 µg/mL; in the series on Escherichia coli [10], 0.76 µg/mL; in the series with Klebsiella pneumoniae [11], 0.09 µg/mL; in the series on Klebsiella pneumoniae [12] it was 0.76 µg/mL; in the series on Klebsiella pneumoniae [13], 3.02 µg/mL; with Acinetobacter baumannii [14], 0.76 µg/mL. For the same molecule, the MIC in the series with Acinetobacter baumannii [15] is 3.02 µg/mL; in the series with Acinetobacter baumannii [16], 3.02 µg/mL; in the series with Pseudomonas aeruginosa [17], 2 µg/mL; with Pseudomonas aeruginosa [18], 0.76 µg/mL; with Pseudomonas aeruginosa [19], 0.76 µg/mL; with Escherichia coli [3] it was under 0.016 µg/mL. The same molecule registered an MIC in the series with Escherichia coli [4] of 0.5 µg/mL (≈ 1.03 µM).

`CCNc1cc(F)cc2c1[nH]c1ncc(-c3cncc(C#N)c3)c(-n3ccc(C(F)(F)F)n3)c12` came in with a log distribution coefficient (logD) in series [2] of 3.63. Also, the MIC in the series with Escherichia coli [9] worked out at 1.45 µg/mL; in the series on Escherichia coli [10], 2.91 µg/mL; with Klebsiella pneumoniae [11], 0.73 µg/mL; in the series on Klebsiella pneumoniae [12] it was 1.45 µg/mL; in the series on Klebsiella pneumoniae [13], 5.82 µg/mL; in the series with Acinetobacter baumannii [14] it was 0.73 µg/mL. In addition, the MIC with Acinetobacter baumannii [15] was over 23.3 µg/mL; in the series with Acinetobacter baumannii [16], 1.45 µg/mL; in the series with Pseudomonas aeruginosa [17], 2 µg/mL; in the series with Pseudomonas aeruginosa [18], 5.82 µg/mL; with Pseudomonas aeruginosa [19], 1.45 µg/mL; against Escherichia coli [3] it was under 0.016 µg/mL. Also, the MIC against Escherichia coli [4] came out at 0.5 µg/mL (≈ 1.07 µM). For the same molecule, the CLint scaled at 0.5 h in “in vitro” came to 61.8 mL/min/kg. In “physchem [8]”, this molecule had a solubility of under 0.3 µg/mL.

With `CCNc1cc(F)cc2c1[nH]c1ncc(-c3cncc(C#N)c3)c(-n3nc(C(F)(F)F)c4c3CNC4)c12`, the fraction unbound at 5 h, 1 µM in series [7] came out at 0.012. Further, the pKa in the series “physchem [5]” came out at 6.57. Further, the CLint scaled at 0.5 h in the series “in vitro” amounted to 73.2 mL/min/kg. In “physchem [8]”, this molecule gave a solubility of under 0.3 µg/mL. In the series with Escherichia coli [4], this molecule returned an MIC of 1 µg/mL (≈ 1.97 µM).

With `CCNc1cc(F)cc2c1[nH]c1ncc(-c3cnc(N4CCNCC4)nc3)c(-n3ccc(C(F)(F)F)n3)c12`, the pKa in the series “physchem [5]” was 8.6. In the series “in vitro”, this molecule gave a CLint scaled at 0.5 h of 61.4 mL/min/kg. In the series “physchem [8]”, the solubility was under 1 µg/mL. Further, the MIC against Escherichia coli [3] worked out at 0.31 µg/mL (≈ 0.59 µM); in the series with Escherichia coli [4], 1 µg/mL (≈ 1.9 µM).

On to `CCNc1cc(F)cc2c1[nH]c1ncc(-c3cnc(NC4CCNCC4)nc3)c(-n3ccc(C(F)(F)F)n3)c12`, for which the pKa in “physchem [5]” is 9.52. This molecule also had a CLint scaled at 0.5 h in “in vitro” of 57.9 mL/min/kg. Moreover, in the series “physchem [8]”, the solubility stood at 7.6 µg/mL (≈ 14.1 µM). Moreover, the MIC against Escherichia coli [3] was found to be 0.63 µg/mL (≈ 1.17 µM); against Escherichia coli [4], 1 µg/mL (≈ 1.85 µM).

The molecule `CCNc1cc(F)cc2c1[nH]c1ncc(-c3cncc(CO)c3)c(-n3ccc(C(F)(F)F)n3)c12` came in with a logD in series [2] of 3.56. For the same molecule, the MIC with Escherichia coli [9] is 1.47 µg/mL; in the series with Escherichia coli [10], 1.47 µg/mL; in the series with Klebsiella pneumoniae [11], 0.183 µg/mL; in the series on Klebsiella pneumoniae [12] it was 1.47 µg/mL; in the series with Klebsiella pneumoniae [13], over 23.5 µg/mL; in the series on Acinetobacter baumannii [14], 73 µg/mL. Also, the MIC was over 23.5 µg/mL with Acinetobacter baumannii [15]; over 23.5 µg/mL in the series on Acinetobacter baumannii [16]; 4 µg/mL in the series with Pseudomonas aeruginosa [17]; over 23.5 µg/mL in the series on Pseudomonas aeruginosa [18]; 1.47 µg/mL in the series on Pseudomonas aeruginosa [19]; under 0.016 µg/mL with Escherichia coli [3]. Besides, the MIC against Escherichia coli [4] is 0.5 µg/mL (≈ 1.06 µM).

Turning to `CCNc1cc(F)cc2c1[nH]c1ncc(-c3cnc(OC)nc3)c(-n3nc(C(F)(F)F)c4c3CNC4)c12`, the free fraction (fraction unbound) at 5 h, 1 µM in series [7] is 0.016. Further, the intrinsic metabolic clearance (CLint scaled) at 0.5 h in “in vitro” turned out to be 77.4 mL/min/kg. The molecule also had a solubility in the series “physchem [8]” of 4 µg/mL (≈ 7.81 µM). The molecule also came in with an MIC in the series with Escherichia coli [4] of 1 µg/mL (≈ 1.95 µM).

Take `CCNc1cc(F)cc2c1[nH]c1ncc(-c3cncc(N4CCOCC4)c3)c(-n3ccc(C(F)(F)F)n3)c12`: the logD in [2] was 3.64. The results for the MIC against Escherichia coli [3] and against Escherichia coli [4] were under 0.25 µg/mL and 1 µg/mL (≈ 1.9 µM), respectively.

For orientation: pKa means the pH at which an ionisable group is half protonated. A higher pKa goes with a group that holds its proton tightly. Broadly, the logD is lipophilicity at a set pH, counting ionised and neutral species. Low readings indicate lower lipophilicity, high ones higher lipophilicity. By fraction unbound is commonly meant free concentration divided by total concentration. The CLint scaled is a measure of how fast metabolising enzymes remove a compound, apart from limits set by blood flow. Low readings indicate greater metabolic stability, high ones faster metabolism. What is called solubility is the concentration that dissolves in the medium under given conditions. A lower solubility goes with little dissolved substance.

(Values after ChEMBL document CHEMBL4725353, “Discovery of Pyrido[2,3-b]indole Derivatives with Gram-Negative Activity Targeting Both DNA Gyrase and Topoisomerase IV” (J Med Chem, 2020).)
